Results published in paper PMC7160673, “A Degenerate Peptide Library Approach to Reveal Sequence Determinants of Methyllysine-Driven Protein Interactions” (Frontiers in Cell and Developmental Biology, 2020).
Where no end group is shown, it is not given here. Peg = not defined here

System: CST 9733 (anti-H3K27me3)
Assay: Histone peptide microarray, CST 9733
Format: binding
Conditions: histone peptide array signal normalized to the highest peptide average per subarray, hits; CST 9733 LOT:14 dilution 1:5,000
Method: (§1) Peptide microarrays were fabricated using an Aushon 2470 microarrayer and used as described ([Cornett et al., 2017]) with the following modifications. Protein and antibody hybridization steps were performed in buffer containing 25 mM HEPES pH 7.5, 100 mM NaCl, 0.5% BSA (w/v), and 0.1% NP-40. Slides were washed 3 × 5 min in PBS supplemented with 0.1% Tween-20 between each hybridization step. Antibodies used were primary anti-GST (Sigma #7781, 1:2,000 dilution) and an AlexaFluor 647-labeled secondary antibody (Life Technologies A-21245, 1:5,000 dilution). […] Full lists of peptides queried by array analysis are in Supplementary Table S2.

Row | Substance | Avg Signal
1 | ARTK(Ac)QTARK(Ac)STGGK(Ac)APRK(Ac)QL-K(Biot)-NH2 [H3.1K4acK9acK14acK18ac] | 0.0003418
2 | Ac-APRKQLATKAARK(Me3)pSAPSTGG-Peg-Biot [H3.3K27me3S28p] | 0.1559
3 | Ac-SGRGK(But)GGK(But)GLGK(But)GGAKRHRKVLR-Peg-Biot [H4K5butK8butK12but] | 0.0001351
4 | Ac-GK(Ac)GGAK(Ac)RHRK(Me)VLRDNIQ-Peg-Biot [H4K12acK16acK20me1] | 0.0009983
5 | Ac-APRKQLATKAARK(Ac)pSAPSTGG-Peg-K(Biot)-NH2 [H3.3K27acS28p] | 0.0002202
6 | KSAPSTGGVK(Me3)KPHRYRPGTV-K(biotin)-NH2 [H3.3K36me3 H3.3(27-46)] | 0.00263
7 | Ac-SGRGK(Ac)TGGKARAKAKSR-Peg-Biotin [Peptide H2A.XK5ac] | 0.0001351
8 | ARTKQTAR(Me)KSTGGKAPRKQL-Peg-Biot (chain 2 KSTGGKAPRKQL-{Peg-Biot}; not fully specified; reading uncertain) [Peptide H3.1R8me1] | 0.01735

System: Millipore #07-449, anti-H3K27me3
Assay: Histone peptide microarray, Millipore 07-449
Format: binding
Conditions: Millipore 07-449 (anti-H3K27me3) hits, average signal per peptide
Method: as §1

Row | Substance | Avg Signal
9 | PEPAK(Me)SAPAPKKGSKKAVTKAQKK-Peg-Biot [Peptide H2BK5me1] | 0.01581
10 | ARTKQTARKpSTGGKAPRKQL-K(Biot)-NH2 [Peptide H3.1S10p] | 0.004546
11 | Ac-pSGCitGK(Ac)QGGKARAKAKTR-Peg-Biot [H2AS1pCit3K5ac] | 0.006425
12 | pSGRGK(Ac)QGGK(Ac)ARAK(Ac)AK(Ac)TR-Peg-Biot [H2AS1pK5acK9acK13acK15ac(noN-ac)] | 0.001023
13 | ARTKQTARK(Ac)STGGKAPRK(Ac)QL-K(Biot)-NH2 [H3.1K9acK18ac] | 0.006063
14 | Ac-APRKQLATKAARK(Me3)pSAPSTGG-Peg-Biot [H3.3K27me3S28p] | 0.1105
15 | Ac-SGRGK(But)GGK(But)GLGK(But)GGAKRHRKVLR-Peg-Biot [H4K5butK8butK12but] | 0.01591
16 | Ac-GK(Ac)GGAK(Ac)RHRK(Me)VLRDNIQ-Peg-Biot [H4K12acK16acK20me1] | 0.001642
17 | Ac-APRKQLATKAARK(Ac)pSAPSTGG-Peg-K(Biot)-NH2 [H3.3K27acS28p] | 0.0005992
18 | Ac-APRKQLATKAARK(Me)SAPSTGG--Peg-Biot [Peptide H3.3K27me1] | 0.003394

System: Active Motif #39161, anti-H3K9me3
Assay: Histone peptide microarray, Active Motif 39161
Format: binding
Conditions: Active Motif 39161 (anti-H3K9me3) hits
Method: as §1

Row | Substance | Avg Signal
19 | Ac-SGRGKGGK(Ac)GLGKGGAK(Ac)RHRKVLR-Peg-Biot [Peptide H4K8acK16ac] | 0.003751
20 | PEPAK(Me)SAPAPKKGSKKAVTKAQKK-Peg-Biot [Peptide H2BK5me1] | 0.004346
21 | Ac-pSGCitGK(Ac)QGGKARAKAKTR-Peg-Biot [H2AS1pCit3K5ac] | 0.0032
22 | Ac-SGRGKGGK(Ac)GLGKGGAKRHRKVLR-Peg-Biot [Peptide H4K8ac] | 0.001167
23 | ARTK(Ac)QTARKSTGGK(Ac)APRKQL-K(Biot)-NH2 [H3.1K4acK14ac] | 0.0007938
24 | ARTKQpTARKSTGGKAPRKQL-K(Biot)-NH2 [Peptide H3.1T6p] | 0.0005946
25 | AR(Me2a)TK(Ac)QTARK(Ac)STGGK(Ac)APRK(Ac)QL-K(Biot)-NH2 [H3.1R2me2aK4acK9acK14acK18ac] | 0.00047
26 | Ac-SGR(Me2a)GK(Ac)QGGKARAKAKTR-Peg-Biot [H2AR3me2aK5ac] | 0.03211
27 | ARTKQTARK(Ac)STGGKAPRK(Ac)QL-K(Biot)-NH2 [H3.1K9acK18ac] | 0.0006444
28 | ARTKQTARK(Ac)STGGKAPRKQL-K(Biot)-NH2 (not fully specified; K9 acetyl; K(Biot)-NH2) [Peptide H3.1K9ac] | 0.0003455
29 | Ac-GKGGAKRHRK(Me)VLRDNIQ-Peg-Biot [Peptide H4K20me1] | 7.157e-5
30 | Ac-SGRGK(Ac)GGKGLGKGGAKRHRKVLR-Peg-Biot [Peptide H4K5ac] | 0.04019
31 | ARTK(Ac)QTARK(Ac)STGGK(Ac)APRK(Ac)QL-K(Biot)-NH2 [H3.1K4acK9acK14acK18ac] | 0.05366
32 | Ac-APRKQLATKAARK(Me3)pSAPSTGG-Peg-Biot [H3.3K27me3S28p] | 0.0007938
33 | Ac-SGRGK(But)GGK(But)GLGK(But)GGAKRHRKVLR-Peg-Biot [H4K5butK8butK12but] | 0.01514
34 | Ac-GK(Ac)GGAK(Ac)RHRK(Me)VLRDNIQ-Peg-Biot [H4K12acK16acK20me1] | 0.005445
35 | Ac-APRKQLATKAARK(Ac)pSAPSTGG-Peg-K(Biot)-NH2 [H3.3K27acS28p] | 0.002338

System: Abcam #ab8895, anti-H3K4me1
Assay: Histone peptide microarray, Abcam ab8895
Format: binding
Conditions: Abcam ab8895 (anti-H3K4me1) hits, average signal per peptide
Method: as §1

Row | Substance | Avg Signal
36 | Ac-SGRGKGGK(Ac)GLGKGGAK(Ac)RHRKVLR-Peg-Biot [Peptide H4K8acK16ac] | 0.002102
37 | PEPAK(Me)SAPAPKKGSKKAVTKAQKK-Peg-Biot [Peptide H2BK5me1] | 0.004522
38 | ARTKQTARKpSTGGKAPRKQL-K(Biot)-NH2 [Peptide H3.1S10p] | 0.06974
39 | Ac-pSGCitGK(Ac)QGGKARAKAKTR-Peg-Biot [H2AS1pCit3K5ac] | 0.004421
40 | pSGRGK(Ac)QGGK(Ac)ARAK(Ac)AK(Ac)TR-Peg-Biot [H2AS1pK5acK9acK13acK15ac(noN-ac)] | 0.0006853
41 | Ac-SGRGKGGK(Ac)GLGKGGAKRHRKVLR-Peg-Biot [Peptide H4K8ac] | 0.01217
42 | ARTK(Ac)QTARKSTGGK(Ac)APRKQL-K(Biot)-NH2 [H3.1K4acK14ac] | 0.001132
43 | ARTKQpTARKSTGGKAPRKQL-K(Biot)-NH2 [Peptide H3.1T6p] | 0.0003583
44 | AR(Me2a)TK(Ac)QTARK(Ac)STGGK(Ac)APRK(Ac)QL-K(Biot)-NH2 [H3.1R2me2aK4acK9acK14acK18ac] | 0.0001948
45 | Ac-SGR(Me2a)GK(Ac)QGGKARAKAKTR-Peg-Biot [H2AR3me2aK5ac] | 0.0107
46 | Ac-SGRGK(Ac)GGK(Ac)GLGK(Ac)GGAK(Ac)RHRKVLR-Peg-Biot [H4K5acK8acK12acK16ac] | 0.005523
47 | ARTKQTARK(Ac)STGGKAPRK(Ac)QL-K(Biot)-NH2 [H3.1K9acK18ac] | 0.2595
48 | ARTKQTARK(Ac)STGGKAPRKQL-K(Biot)-NH2 (not fully specified; K9 acetyl; K(Biot)-NH2) [Peptide H3.1K9ac] | 0.168
49 | ARTKQTARK(Ac)pSTGGKAPRKQL-K(Biot)-NH2 [Peptide H3.1K9acS10p] | 0.1852
50 | Ac-GKGGAKRHRK(Me)VLRDNIQ-Peg-Biot [Peptide H4K20me1] | 0.003452
51 | Ac-SGRGK(Ac)GGKGLGKGGAKRHRKVLR-Peg-Biot [Peptide H4K5ac] | 0.0009033
52 | Ac-SGRGK(But)GGK(But)GLGK(But)GGAKRHRKVLR-Peg-Biot [H4K5butK8butK12but] | 0.000718
53 | ARTKQTARK(Me2)pSTGGKAPRKQL-K(Biot)-NH2 [H3.1K9me2S10p] | 0.1568
54 | Ac-APRKQLATKAARK(Me)SAPSTGG--Peg-Biot [Peptide H3.3K27me1] | 0.01351
55 | ARTKQTAR(Me)KSTGGKAPRKQL-Peg-Biot (chain 2 KSTGGKAPRKQL-{Peg-Biot}; not fully specified; reading uncertain) [Peptide H3.1R8me1] | 0.1046

System: 53BP1 TTD
Assay: Histone peptide microarray, 53BP1 TTD
Format: binding
Conditions: 53BP1 TTD hits, average signal per peptide
Method: as §1

Row | Substance | Avg Signal
56 | Ac-SGRGKGGK(Ac)GLGKGGAK(Ac)RHRKVLR-Peg-Biot [Peptide H4K8acK16ac] | 0.2331
57 | PEPAK(Me)SAPAPKKGSKKAVTKAQKK-Peg-Biot [Peptide H2BK5me1] | 0.1012
58 | ARTKQTARKpSTGGKAPRKQL-K(Biot)-NH2 [Peptide H3.1S10p] | 0.0218
59 | Ac-pSGCitGK(Ac)QGGKARAKAKTR-Peg-Biot [H2AS1pCit3K5ac] | 0.04418
60 | pSGRGK(Ac)QGGK(Ac)ARAK(Ac)AK(Ac)TR-Peg-Biot [H2AS1pK5acK9acK13acK15ac(noN-ac)] | 0.06769
61 | Ac-SGRGKGGK(Ac)GLGKGGAKRHRKVLR-Peg-Biot [Peptide H4K8ac] | 0.08696
62 | ARTK(Ac)QTARKSTGGK(Ac)APRKQL-K(Biot)-NH2 [H3.1K4acK14ac] | 0.2064
63 | ARTKQpTARKSTGGKAPRKQL-K(Biot)-NH2 [Peptide H3.1T6p] | 0.07045
64 | AR(Me2a)TK(Ac)QTARK(Ac)STGGK(Ac)APRK(Ac)QL-K(Biot)-NH2 [H3.1R2me2aK4acK9acK14acK18ac] | 0.1712
65 | Ac-SGR(Me2a)GK(Ac)QGGKARAKAKTR-Peg-Biot [H2AR3me2aK5ac] | 0.03444
66 | Ac-SGRGK(Ac)GGK(Ac)GLGK(Ac)GGAK(Ac)RHRKVLR-Peg-Biot [H4K5acK8acK12acK16ac] | 0.1158
67 | ARTKQTARK(Ac)STGGKAPRK(Ac)QL-K(Biot)-NH2 [H3.1K9acK18ac] | 0.0364
68 | ARTKQTARK(Ac)STGGKAPRKQL-K(Biot)-NH2 (not fully specified; K9 acetyl; K(Biot)-NH2) [Peptide H3.1K9ac] | 0.1022
69 | ARTKQTARK(Ac)pSTGGKAPRKQL-K(Biot)-NH2 [Peptide H3.1K9acS10p] | 0.0481
70 | Ac-GKGGAKRHRK(Me)VLRDNIQ-Peg-Biot [Peptide H4K20me1] | 0.5244
71 | Ac-SGRGK(Ac)GGKGLGKGGAKRHRKVLR-Peg-Biot [Peptide H4K5ac] | 0.009315
72 | ARTK(Ac)QTARK(Ac)STGGK(Ac)APRK(Ac)QL-K(Biot)-NH2 [H3.1K4acK9acK14acK18ac] | 0.1399
73 | ARTKQTARK(Me2)pSTGGKAPRKQL-K(Biot)-NH2 [H3.1K9me2S10p] | 0.3509
74 | Ac-APRKQLATKAARK(Me)SAPSTGG--Peg-Biot [Peptide H3.3K27me1] | 0.1127
